# Measured values taken from US8771646B2, “Nicotinic acid and picolinic acid derived near-infrared fluorophores” (VisEn Medical, Inc., priority 2005, dated 2014).
# Experiment: Absorption and emission maxima in water
# Assay type: physicochemical
smiles,measurement,value
O=C(O)c1ccc(C(=C\C=C2/Sc3ccccc3N2CCCS(=O)(=O)O)/C=C/c2sc3ccccc3[n+]2CCCS(=O)(=O)O)nc1 [Example 6],Abs. max (water),643 nm
same,Em. Max (water),663 nm
